Our source for the IC50 values is patent US20240116988A1, “ANTI-ROR1 MACROCYCLIC PEPTIDES AND COMPOSITIONS” (BRISTOL-MYERS SQUIBB COMPANY, priority 2022, published 2024).

pIC50: −log10 of the molar value. Read-outs that look alike come from different tables or passages of the source. Positions of bridges follow the written chain, without caps; N, C: chain ends. Non-standard residues stand in square brackets, D forms with d. Residues, ends and D or L forms follow the SMILES beside them. ξ: configuration not given here. NMeF = CN[C@@H](Cc1ccccc1)C(=O)O; Ile(3ξ) = CCC(C)[C@H](N)C(=O)O; Thr(3ξ) = CC(O)[C@H](N)C(=O)O; NMeA = CN[C@@H](C)C(=O)O; ξA = CC(N)C(=O)O; Sar = CNCC(=O)O

The pIC50 is −log10 of the IC50, conventionally taken in molar units.

The experiment has as its target T1, human ROR1 (Homo sapiens, UniProt Q01973).
T1 construct: host or cells: HEK 293T cells, Tet-on system induced with doxycycline
The experiment can be described thus: ROR1 high content cell-based binding assay. As to conditions: read-out: ROR1 Binding 293T Human HC Cell Based Assay IC50. How it is done: ROR1 high content cell-based binding assay: Human embryonic kidney 293T cells (293T) expressing human ROR1 with Tet-on system by doxycycline were used (Arctic-488134) for the assessment of inhibition of the binding of fluorescently-labeled competing peptide (“Probe”) that specifically binds to human ROR1. […] Cryopreserved vials were thawed in a 37° C. water bath. Cells were washed in assay culture media [DMEM (Life Technologies Inc. Cat. […] Cat. No. 15140-122) and […] dox] and diluted 1.0×10^5 cells/mL. Cells were seeded into PDL-coated 384 well plates (BD Falcon Cat. No. 356663) at 2,000 cells/20 μL. Plates were allowed to incubate for 10 minutes at room temperature and then transferred to a 37° C./5% CO2 incubator for overnight incubation. The next day, 125 nL of the test compound was added using an ECHO followed by the addition of 5 μL/well of 5-FAM-labeled probe to cells at a final concentration of 30 nM. Sample were incubated for 1 hour at 37° C. for 1 hour, followed by 3 washes in […] of dPBS. Cells were fixed by adding 8% (w/v) formaldehyde (Sigma Cat. No. 252549), 20 μg/mL Hoechst (Thermo Scientific Cat. No. 62249) in PBS for 20 minutes at room temperature. The plates were washed 3 more times in dPBS and 15 μl of PBS was left in the wells following the last wash. The plates were sealed, and data was using obtained using a CellInsight NXT High Content Screening Platform IC903000 (Thermo Scientific).

T1 sequence (Q01973 30-937): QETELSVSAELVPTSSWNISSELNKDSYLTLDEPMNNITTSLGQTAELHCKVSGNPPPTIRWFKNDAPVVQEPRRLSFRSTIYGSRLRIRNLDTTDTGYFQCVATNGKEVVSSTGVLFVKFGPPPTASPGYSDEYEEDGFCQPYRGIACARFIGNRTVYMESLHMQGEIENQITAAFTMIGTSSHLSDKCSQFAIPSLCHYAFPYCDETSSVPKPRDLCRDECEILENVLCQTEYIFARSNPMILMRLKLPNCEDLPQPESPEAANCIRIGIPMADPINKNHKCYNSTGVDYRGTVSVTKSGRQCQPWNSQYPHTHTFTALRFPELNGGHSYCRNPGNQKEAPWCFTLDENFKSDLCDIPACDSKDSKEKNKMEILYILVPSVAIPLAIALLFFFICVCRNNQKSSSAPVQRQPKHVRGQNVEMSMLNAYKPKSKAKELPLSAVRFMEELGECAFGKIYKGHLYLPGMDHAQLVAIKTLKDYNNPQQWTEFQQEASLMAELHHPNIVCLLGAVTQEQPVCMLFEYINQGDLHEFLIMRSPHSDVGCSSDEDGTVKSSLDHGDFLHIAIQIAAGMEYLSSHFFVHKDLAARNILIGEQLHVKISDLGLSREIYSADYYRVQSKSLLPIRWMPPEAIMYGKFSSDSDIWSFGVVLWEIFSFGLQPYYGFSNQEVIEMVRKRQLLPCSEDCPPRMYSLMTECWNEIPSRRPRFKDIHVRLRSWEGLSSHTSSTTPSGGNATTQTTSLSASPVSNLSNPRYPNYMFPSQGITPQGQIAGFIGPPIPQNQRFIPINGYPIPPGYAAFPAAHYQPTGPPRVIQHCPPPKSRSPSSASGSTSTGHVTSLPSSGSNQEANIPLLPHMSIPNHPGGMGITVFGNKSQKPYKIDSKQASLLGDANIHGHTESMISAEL

Consider `CC(C)C[C@@H]1NC(=O)[C@H](Cc2ccc(O)cc2)NC(=O)[C@H](CCC(N)=O)NC(=O)CSC[C@@H](C(=O)NCC(N)=O)NC(=O)[C@H](CC(C)C)NC(=O)[C@H](Cc2ccccc2)N(C)C(=O)[C@H](Cc2ccc(O)cc2)NC(=O)[C@H](Cc2c[nH]c3ccccc23)NC(=O)CNC(=O)[C@H](CO)NC(=O)[C@H](Cc2ccc(O)cc2)NC(=O)[C@H](C(C)C)NC1=O` [Example 1088] ({CH2CO}-QYLVYSGWY[NMeF]LCG-NH2; thioether N-12), for which the negative-log IC50 (pIC50) was 7.08.
In the case of `CC(C)C[C@@H]1NC(=O)[C@H](Cc2ccc(O)cc2)NC(=O)[C@H](Cc2ccccc2)NC(=O)CSC[C@@H](C(=O)NCC(N)=O)NC(=O)[C@H](CC(C)C)NC(=O)[C@H](Cc2ccccc2)N(C)C(=O)[C@H](Cc2ccc(O)cc2)NC(=O)[C@H](Cc2c[nH]c3ccccc23)NC(=O)CNC(=O)[C@H](Cc2ccc(O)cc2)NC(=O)[C@H](CCCNC(=N)N)NC(=O)[C@H](C(C)C)NC1=O` [Example 1055] ({CH2CO}-FYLVRYGWY[NMeF]LCG-NH2; thioether N-12), the pIC50 is 7.54.
As to `CC(C)C[C@@H]1NC(=O)[C@H](Cc2ccc(O)cc2)NC(=O)[C@H](Cc2ccccc2)NC(=O)CSC[C@@H](C(=O)NCC(N)=O)NC(=O)[C@H](C)N(C)C(=O)[C@H](Cc2ccccc2)N(C)C(=O)[C@H](Cc2ccc(O)cc2)NC(=O)[C@H](Cc2c[nH]c3ccccc23)NC(=O)CNC(=O)[C@H](CO)NC(=O)[C@H](Cc2ccc(O)cc2)NC(=O)[C@H](C(C)C)NC1=O` [Example 1064] ({CH2CO}-FYLVYSGWY[NMeF][NMeA]CG-NH2; thioether N-12), the pIC50 is 6.70.
The same measure, in the same setting: as for `CC(C)C[C@@H]1NC(=O)[C@H](C(C)O)NC(=O)[C@H](Cc2ccccc2)N(C)C(=O)CNC(=O)[C@H](Cc2ccc(O)cc2)NC(=O)[C@H](Cc2ccccc2)NC(=O)CSC[C@@H](C(N)=O)NC(=O)[C@H](Cc2c[nH]c3ccccc23)NC(=O)[C@H](Cc2ccc(O)cc2)NC1=O` (stereo partly drawn) [Example 1114] ({CH2CO}-FYG[NMeF][Thr(3ξ)]LYWC-NH2; thioether N-9), the figure is 6.33; as for `CC(C)C[C@@H]1NC(=O)[C@H](Cc2ccccc2)NC(=O)CSC[C@@H](C(=O)NCC(N)=O)NC(=O)[C@H](C)NC(=O)[C@H](Cc2ccc(O)cc2)NC(=O)[C@H](Cc2ccc(O)cc2)NC(=O)[C@H](Cc2c[nH]c3ccccc23)NC(=O)CNC(=O)[C@H](Cc2ccc(O)cc2)NC(=O)[C@H](CCCNC(=N)N)NC(=O)[C@H](C(C)C)NC(=O)[C@H](Cc2c[nH]c3ccccc23)NC1=O` [Example 1005] ({CH2CO}-FLWVRYGWYYACG-NH2; thioether N-12), 7.52; as for `CC(C)C[C@@H]1NC(=O)[C@H](Cc2c[nH]c3ccccc23)NC(=O)[C@H](Cc2ccc(O)cc2)NC(=O)[C@H](Cc2c[nH]c3ccccc23)NC(=O)CNC(=O)[C@H](CC(=O)O)NC(=O)[C@H](Cc2ccc(O)cc2)NC(=O)[C@H](C(C)C)NC(=O)[C@@H]2CCCN2C(=O)[C@H](Cc2ccc(O)cc2)NC(=O)[C@H](Cc2ccccc2)NC(=O)CSC[C@@H](C(N)=O)NC1=O` [Example 1094] ({CH2CO}-FYPVYDGWYWLC-NH2; thioether N-12), 7.85.
Still for that read-out and setting: as for `CC(C)C[C@@H]1NC(=O)C(C)NC(=O)[C@H](Cc2ccccc2)N(C)C(=O)CNC(=O)[C@H](Cc2ccc(O)cc2)NC(=O)[C@H](Cc2ccccc2)NC(=O)CSC[C@@H](C(N)=O)NC(=O)[C@H](Cc2c[nH]c3ccccc23)NC(=O)[C@H](Cc2ccc(O)cc2)NC1=O` (stereo partly drawn) [Example 1107] ({CH2CO}-FYG[NMeF][ξA]LYWC-NH2; thioether N-9), the figure is 6.26.
`CC(C)C[C@@H]1NC(=O)[C@H](Cc2ccc(O)cc2)NC(=O)[C@H](Cc2ccccc2)NC(=O)CSC[C@@H](C(=O)NCC(N)=O)NC(=O)[C@H](CC(C)C)NC(=O)[C@H](Cc2ccccc2)N(C)C(=O)[C@H](Cc2ccc(O)cc2)NC(=O)[C@H](Cc2c[nH]c3ccccc23)NC(=O)CNC(=O)[C@H](CCC(=O)O)NC(=O)[C@H](Cc2ccc(O)cc2)NC(=O)[C@H](C(C)C)NC1=O` [Example 1028] ({CH2CO}-FYLVYEGWY[NMeF]LCG-NH2; thioether N-12): the pIC50 (293T cells expressing human ROR1 (Tet-on, doxycycline), inhibition of binding of 5-FAM-labeled probe (Example 1300) at 30 nM, 1 hour at 37° C.) is 8.00.
For `CC(C)C[C@@H]1NC(=O)[C@H](Cc2c[nH]c3ccccc23)NC(=O)[C@H](Cc2ccccc2)NC(=O)[C@H](Cc2c[nH]c3ccccc23)NC(=O)CNC(=O)CNC(=O)[C@H](CC(C)C)NC(=O)[C@H](C(C)C)NC(=O)[C@H](CC(C)C)NC(=O)[C@H](Cc2ccc(O)cc2)NC(=O)[C@H](Cc2ccccc2)NC(=O)CSC[C@@H](C(=O)NCC(N)=O)NC1=O` [Example 1010] ({CH2CO}-FYLVLGGWFWLCG-NH2; thioether N-12), the pIC50 was 6.09.
On the same count and under the same terms, as for `CC(C)C[C@@H]1NC(=O)[C@H](Cc2ccccc2)N(C)C(=O)[C@H](Cc2ccc(O)cc2)NC(=O)[C@H](Cc2c[nH]c3ccccc23)NC(=O)CNC(=O)[C@H](CO)NC(=O)[C@H](Cc2ccc(O)cc2)NC(=O)[C@H](C(C)C)NC(=O)[C@H](CCCNC(=N)N)NC(=O)[C@H](Cc2ccc(O)cc2)NC(=O)[C@H](Cc2ccccc2)NC(=O)CSC[C@@H](C(=O)NCC(N)=O)NC1=O` [Example 1046] ({CH2CO}-FYRVYSGWY[NMeF]LCG-NH2; thioether N-12), the figure is 8.22; as for `CC(C)C[C@@H]1NC(=O)[C@H](Cc2ccc(O)cc2)NC(=O)[C@H](Cc2ccccc2)NC(=O)CSC[C@@H](C(=O)NCC(N)=O)NC(=O)[C@H](CC(C)C)NC(=O)[C@H](Cc2ccccc2)N(C)C(=O)[C@H](Cc2ccc(O)cc2)NC(=O)[C@H](Cc2c[nH]c3ccccc23)NC(=O)CNC(=O)[C@H](CO)NC(=O)[C@H](CCCCN)NC(=O)[C@H](C(C)C)NC1=O` [Example 1029] ({CH2CO}-FYLVKSGWY[NMeF]LCG-NH2; thioether N-12), 6.59.
As to `CCC(C)[C@@H]1NC(=O)[C@H](Cc2c[nH]c3ccccc23)NC(=O)[C@H](Cc2ccccc2)NC(=O)[C@H](Cc2ccc(O)cc2)NC(=O)[C@@H](Cc2ccccc2)NC(=O)CSC[C@@H](C(N)=O)NC(=O)[C@H](C)NC(=O)[C@H](C(C)CC)NC(=O)[C@H](C(C)C)NC(=O)[C@H](Cc2c[nH]c3ccccc23)NC(=O)[C@H](CCCNC(=N)N)NC(=O)CNC1=O` (stereo partly drawn) [Example 1050] ({CH2CO}-[dF]YFW[Ile(3ξ)]GRWV[Ile(3ξ)]AC-NH2; thioether N-12), the negative logarithm of the IC50 (pIC50) was 7.82.
As to `CC(C)C[C@@H]1NC(=O)[C@H](CC(N)=O)NC(=O)[C@H](Cc2ccccc2)N(C)C(=O)CNC(=O)[C@H](Cc2ccccc2)NC(=O)[C@H](Cc2ccccc2)NC(=O)CSC[C@@H](C(N)=O)NC(=O)[C@H](Cc2c[nH]c3ccccc23)NC(=O)[C@H](Cc2ccc(O)cc2)NC1=O` [Example 1108] ({CH2CO}-FFG[NMeF]NLYWC-NH2; thioether N-9), the pIC50 was 6.39.
As to `CC(C)C[C@@H]1NC(=O)[C@H](Cc2ccccc2)NC(=O)CSC[C@@H](C(=O)NCC(N)=O)NC(=O)[C@H](C(C)C)NC(=O)[C@H](Cc2ccccc2)N(C)C(=O)[C@H](CC(C)C)NC(=O)[C@H](Cc2c[nH]c3ccccc23)NC(=O)CN(C)C(=O)CNC(=O)[C@H](C(C)C)NC(=O)[C@H](Cc2c[nH]c3ccccc23)NC1=O` [Example 1201], the pIC50 was 7.41.
On to `CC(C)C[C@@H]1NC(=O)[C@H](Cc2ccc(O)cc2)NC(=O)[C@H](Cc2ccccc2)NC(=O)CSC[C@@H](C(=O)NCC(N)=O)NC(=O)[C@H](CC(C)C)NC(=O)[C@H](Cc2ccccc2)N(C)C(=O)[C@H](Cc2ccc(O)cc2)NC(=O)[C@H](Cc2c[nH]c3ccccc23)NC(=O)[C@H](CCCNC(=N)N)NC(=O)[C@H](CO)NC(=O)[C@H](Cc2ccc(O)cc2)NC(=O)[C@H](C(C)C)NC1=O` [Example 1047] ({CH2CO}-FYLVYSRWY[NMeF]LCG-NH2; thioether N-12), for which the pIC50 is 6.61.
For the compound `CC(C)C[C@@H]1NC(=O)[C@H](Cc2c[nH]c3ccccc23)NC(=O)[C@H](Cc2ccc(O)cc2)NC(=O)[C@H](Cc2c[nH]c3ccccc23)NC(=O)CNC(=O)[C@H](CO)NC(=O)[C@H](Cc2ccc(O)cc2)NC(=O)[C@H](C(C)C)NC(=O)[C@@H]2CCCN2C(=O)[C@H](Cc2ccc(O)cc2)NC(=O)[C@H](Cc2ccccc2)NC(=O)CSC[C@@H](C(=O)NCC(N)=O)NC1=O` [Example 1001] ({CH2CO}-FYPVYSGWYWLCG-NH2; thioether N-12), the pIC50 is 7.31.
For `CC(C)C[C@@H]1NC(=O)[C@H](Cc2ccccc2)NC(=O)CSC[C@@H](C(=O)NCC(N)=O)NC(=O)[C@H](C(C)C)NC(=O)[C@H](Cc2c[nH]c3ccccc23)NC(=O)[C@H](CC(C)C)NC(=O)[C@H](Cc2c[nH]c3ccccc23)NC(=O)CN(C)C(=O)CNC(=O)[C@H](C(C)C)NC(=O)[C@H](Cc2c[nH]c3ccccc23)NC1=O` [Example 1205] ({CH2CO}-FLWVG[Sar]WLWVCG-NH2; thioether N-11), the pIC50 is 6.46.
For `CC(C)C[C@@H]1NC(=O)CNC(=O)[C@H](Cc2ccccc2)N(C)C(=O)CNC(=O)[C@H](Cc2ccc(O)cc2)NC(=O)[C@H](Cc2ccccc2)NC(=O)CSC[C@@H](C(N)=O)NC(=O)[C@H](Cc2c[nH]c3ccccc23)NC(=O)[C@H](Cc2ccc(O)cc2)NC1=O` [Example 1121] ({CH2CO}-FYG[NMeF]GLYWC-NH2; thioether N-9), the pIC50 was 6.42.
